Test results as given in PubChem BioAssay AID248 (DTP/NCI, 2004).
Values joined by “and” are separate entries in the source; they are usually repeats but may differ in a detail not shown here. Equal entries are not always repeated. Inconclusive results and toxic doses are left out. Cut-off read from the data, not from the text of the source: active = T/C of 150% or more; inactive = T/C below 125%.

System: L1210 leukemia ip in BDF1 mice, survival T/C
Assay: NCI In Vivo Anticancer Drug Screen. Data for tumor model L1210 Leukemia (intraperitoneal) in B6D2F1 (BDF1) mice
Settings: endpoint: mean survival time, higher = longer survival
Method in brief: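 Transplantable tumor model; survival measured in treated vs vehicle control mice. Value = treated/control.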

[1] = dose: 100.0 mg/kg/injection, schedule: Q04DX003 (ip), vehicle: saline
[2] = dose: 200.0 mg/kg/injection, schedule: Q04DX003 (ip), vehicle: saline
[3] = dose: 50.0 mg/kg/injection, schedule: Q04DX003 (ip), vehicle: Klucel (hydroxypropylcellulose) (HPC)
[4] = dose: 100.0 mg/kg/injection, schedule: Q04DX003 (ip), vehicle: Klucel (hydroxypropylcellulose) (HPC)
[5] = dose: 200.0 mg/kg/injection, schedule: Q04DX003 (ip), vehicle: Klucel (hydroxypropylcellulose) (HPC)
[6] = dose: 100.0 mg/kg/injection, schedule: Q01DX001 (ip), vehicle: saline
[7] = dose: 200.0 mg/kg/injection, schedule: Q01DX001 (ip), vehicle: saline
[8] = dose: 400.0 mg/kg/injection, schedule: Q01DX001 (ip), vehicle: saline
[9] = dose: 100.0 mg/kg/injection, schedule: Q04DX003 (ip), vehicle: saline with Tween-80
[10] = dose: 200.0 mg/kg/injection, schedule: Q04DX003 (ip), vehicle: saline with Tween-80
[11] = dose: 100.0 mg/kg/injection, schedule: Q01DX001 (ip), vehicle: carboxymethylcellulose (CMC)
[12] = dose: 200.0 mg/kg/injection, schedule: Q01DX001 (ip), vehicle: carboxymethylcellulose (CMC)
[13] = dose: 400.0 mg/kg/injection, schedule: Q01DX001 (ip), vehicle: carboxymethylcellulose (CMC)
[14] = dose: 100.0 mg/kg/injection, schedule: Q04DX003 (ip), vehicle: acetone
[15] = dose: 200.0 mg/kg/injection, schedule: Q04DX003 (ip), vehicle: acetone
[16] = dose: 100.0 mg/kg/injection, schedule: Q01DX009 (ip), vehicle: Klucel (hydroxypropylcellulose) (HPC)
[17] = dose: 200.0 mg/kg/injection, schedule: Q01DX009 (ip), vehicle: Klucel (hydroxypropylcellulose) (HPC)
[18] = dose: 400.0 mg/kg/injection, schedule: Q01DX009 (ip), vehicle: Klucel (hydroxypropylcellulose) (HPC)
[19] = dose: 100.0 mg/kg/injection, schedule: Q04DX002 (ip), vehicle: saline with Tween-80
[20] = dose: 200.0 mg/kg/injection, schedule: Q04DX002 (ip), vehicle: saline with Tween-80
[21] = dose: 400.0 mg/kg/injection, schedule: Q04DX002 (ip), vehicle: saline with Tween-80

Measured: T/C

CCCSP(C(C)C)C(C)C
inactive: dose: 12.5 mg/kg/injection, schedule: Q04DX003 (ip), vehicle: saline with Tween-80 94 % of control | dose: 25.0 mg/kg/injection, schedule: Q04DX003 (ip), vehicle: saline with Tween-80 94 % of control | dose: 50.0 mg/kg/injection, schedule: Q04DX003 (ip), vehicle: saline with Tween-80 91 % of control

CCN(C(=O)CCl)C(C)(C)C(SSSC(c1ccc(Cl)cc1)C(C)(C)N(CC)C(=O)CCl)c1ccc(Cl)cc1 (stereo not drawn)
inactive: [1] 95 % of control | [2] 91 % of control

C=C(C)COc1c(C)c(C)c(OCC(C)C)c(C)c1C
inactive: [3] 96 % of control | [4] 93 % of control | [5] 93 % of control

Cc1ccc(S(=O)(=O)OC2(C(=O)c3ccccc3)CC3CCC2C3)cc1 (stereo not drawn)
inactive: dose: 50.0 mg/kg/injection, schedule: Q01DX001 (ip), vehicle: Klucel (hydroxypropylcellulose) (HPC) 93 % of control | dose: 100.0 mg/kg/injection, schedule: Q01DX001 (ip), vehicle: Klucel (hydroxypropylcellulose) (HPC) 96 % of control | dose: 200.0 mg/kg/injection, schedule: Q01DX001 (ip), vehicle: Klucel (hydroxypropylcellulose) (HPC) 94 % of control

O=C(OCC(O)C(O)C(O)C(SCc1ccccc1)SCc1ccccc1)c1ccc([N+](=O)[O-])cc1 (stereo not drawn)
inactive: [6] 93 % of control | [7] 94 % of control | [8] 94 % of control

Nc1ccc(Cl)cc1C(=O)c1ccccc1
inactive: dose: 25.0 mg/kg/injection, schedule: Q04DX002 (ip), vehicle: DMSO 95 % of control | dose: 50.0 mg/kg/injection, schedule: Q04DX002 (ip), vehicle: DMSO 89 % of control | dose: 100.0 mg/kg/injection, schedule: Q04DX002 (ip), vehicle: DMSO 106 % of control and 88 % of control

CC(N)C(=O)NC(Cc1ccccc1)C(=O)O (stereo not drawn)
inactive: dose: 100.0 mg/kg/injection, schedule: Q01DX001 (ip), vehicle: acetone 101 % of control | dose: 200.0 mg/kg/injection, schedule: Q01DX001 (ip), vehicle: acetone 97 % of control | dose: 400.0 mg/kg/injection, schedule: Q01DX001 (ip), vehicle: acetone 101 % of control

O=C(C[n+]1ccc2c([N+](=O)[O-])cccc2c1)c1ccccc1
inactive: dose: 12.5 mg/kg/injection, schedule: Q04DX003 (ip), vehicle: Klucel (hydroxypropylcellulose) (HPC) 98 % of control | dose: 25.0 mg/kg/injection, schedule: Q04DX003 (ip), vehicle: Klucel (hydroxypropylcellulose) (HPC) 105 % of control | [3] 103 % of control | [4] 96 % of control

O=C(O)CS(=O)(=O)Cc1ccccc1
inactive: [9] 97 % of control | [10] 90 % of control

NCCc1ccc2c(c1)OCO2
inactive: dose: 25.0 mg/kg/injection, schedule: Q01DX009 (ip), vehicle: saline 109 % of control | dose: 50.0 mg/kg/injection, schedule: Q01DX009 (ip), vehicle: saline 107 % of control | dose: 100.0 mg/kg/injection, schedule: Q01DX009 (ip), vehicle: saline 100 % of control and 107 % of control | [1] 97 % of control | [2] 102 % of control

C[N+](C)(C)CCCN1c2ccccc2S(=O)c2ccc(Cl)cc21 (stereo not drawn)
inactive: [11] 100 % of control | [12] 103 % of control | [13] 103 % of control

O=S(=O)(c1ccccc1)N1CCOC1=S
inactive: [14] 93 % of control | [15] 101 % of control | dose: 400.0 mg/kg/injection, schedule: Q04DX003 (ip), vehicle: acetone 93 % of control

COc1ccc(OC)c(NC(=O)c2cccc(N(CCO)CCO)c2)c1
inactive: [11] 102 % of control | [12] 94 % of control | [13] 94 % of control

Cc1cnc(N/N=C/c2ccccc2)nc1-c1ccccc1O
inactive: dose: 100.0 mg/kg/injection, schedule: Q04DX002 (ip), vehicle: Klucel (hydroxypropylcellulose) (HPC) 103 % of control | dose: 200.0 mg/kg/injection, schedule: Q04DX002 (ip), vehicle: Klucel (hydroxypropylcellulose) (HPC) 100 % of control | dose: 400.0 mg/kg/injection, schedule: Q04DX002 (ip), vehicle: Klucel (hydroxypropylcellulose) (HPC) 92 % of control

Cc1ccc(C2(C)CCC(=O)c3cc(C)c(C)cc32)cc1C (stereo not drawn)
inactive: dose: 50.0 mg/kg/injection, schedule: Q01DX001 (ip), vehicle: saline 97 % of control | [6] 100 % of control | [7] 94 % of control | [8] 103 % of control

COc1cc(Br)c(CCC(N)=O)cc1OC
inactive: [9] 96 % of control | [10] 95 % of control | dose: 400.0 mg/kg/injection, schedule: Q04DX003 (ip), vehicle: saline with Tween-80 93 % of control

CCOC(=O)Cc1cc(O)ccc1O
inactive: dose: 100.0 mg/kg/injection, schedule: Q01DX001 (ip), vehicle: saline with Tween-80 109 % of control | dose: 200.0 mg/kg/injection, schedule: Q01DX001 (ip), vehicle: saline with Tween-80 89 % of control | dose: 400.0 mg/kg/injection, schedule: Q01DX001 (ip), vehicle: saline with Tween-80 91 % of control

O=C(Nc1ccc(S(=O)(=O)F)cc1)/C(=C/c1cccc([N+](=O)[O-])c1)c1ccccc1
inactive: [16] 106 % of control | [17] 94 % of control | [18] 100 % of control

O=[N+]([O-])c1ccccc1N=C=S
inactive: dose: 6.25 mg/kg/injection, schedule: Q01DX009 (ip), vehicle: gum acacia 102 % of control | dose: 12.5 mg/kg/injection, schedule: Q01DX009 (ip), vehicle: gum acacia 98 % of control | dose: 25.0 mg/kg/injection, schedule: Q01DX009 (ip), vehicle: gum acacia 97 % of control and 103 % of control | dose: 25.0 mg/kg/injection, schedule: Q04DX002 (ip), vehicle: gum acacia 98 % of control | dose: 50.0 mg/kg/injection, schedule: Q04DX002 (ip), vehicle: gum acacia 106 % of control | dose: 100.0 mg/kg/injection, schedule: Q04DX002 (ip), vehicle: gum acacia 103 % of control

O=P(OCc1ccccc1)(N(CCCl)CCCl)N1CCN(P(=O)(OCc2ccccc2)N(CCCl)CCCl)CC1 (stereo not drawn)
inactive: dose: 16.0 mg/kg/injection, schedule: Q01DX Z (ip), vehicle: saline 94 % of control | dose: 32.0 mg/kg/injection, schedule: Q01DX Z (ip), vehicle: saline 89 % of control | dose: 64.0 mg/kg/injection, schedule: Q01DX Z (ip), vehicle: saline 95 % of control | dose: 128.0 mg/kg/injection, schedule: Q01DX Z (ip), vehicle: saline 111 % of control

Cc1ccc(NC(c2cc(Br)ccc2O)P(=O)(c2ccccc2)c2ccccc2)c([N+](=O)[O-])c1 (stereo not drawn)
inactive: [16] 93 % of control | [17] 96 % of control | [18] 96 % of control

COc1ccccc1-n1c(O)c(N=Nc2ccccc2C)c(=O)n(-c2ccc(I)cc2)c1=S
inactive: dose: 37.5 mg/kg/injection, schedule: Q01DX001 (ip), vehicle: Klucel (hydroxypropylcellulose) (HPC) 89 % of control | dose: 75.0 mg/kg/injection, schedule: Q01DX001 (ip), vehicle: Klucel (hydroxypropylcellulose) (HPC) 92 % of control | dose: 150.0 mg/kg/injection, schedule: Q01DX001 (ip), vehicle: Klucel (hydroxypropylcellulose) (HPC) 97 % of control

O=C1CCC(Cc2ccccc2)N1 (stereo not drawn)
inactive: [19] 97 % of control | [20] 102 % of control | [21] 97 % of control

S=C(NNC(=S)Nc1ccc(Cl)cc1)NNc1ccccc1
inactive: [14] 97 % of control | [15] 100 % of control

CCCCN(CCCC)S(=O)(=O)CC
inactive: [19] 100 % of control | [20] 98 % of control | [21] 95 % of control

O=CNC(CSC(=O)c1ccccc1)C(=O)O (stereo not drawn)
inactive: [16] 101 % of control | [4] 97 % of control | [17] 101 % of control | [5] 97 % of control | dose: 400.0 mg/kg/injection, schedule: Q04DX003 (ip), vehicle: Klucel (hydroxypropylcellulose) (HPC) 94 % of control

Cc1cccnc1NC(=O)NCCCl
inactive: [11] 101 % of control | [16] 92 % of control | [1] 98 % of control | [12] 103 % of control | [17] 93 % of control | [2] 97 % of control | [13] 103 % of control | dose: 400.0 mg/kg/injection, schedule: Q04DX003 (ip), vehicle: saline 89 % of control
